Literature values, collected in US20050244368A1, “Pre-endoscopic use of polyethylene glycol compositions” (priority 2004, published 2005).

Settings: % of adult patients (Zwas et al., 1996)

colonic mucosal changes mimicking inflammatory bowel disease: up to 24%
SMILES: O=P(O)(O)O [sodium phosphate]
